Values quoted from earlier work in paper PMC9898036, “VIP152 is a selective CDK9 inhibitor with pre-clinical in vitro and in vivo efficacy in chronic lymphocytic leukemia” (Leukemia, 2022).

System: CLL patients
Conditions: cited from earlier work

Structure (SMILES): CCc1cnn2c(NCc3ccc[n+]([O-])c3)cc(N3CCCC[C@H]3CCO)nc12 [dinaciclib]
- patients having a partial response: 64%
